The subject of data set [1] is AChE-S mRNA. Nature of the data set: In situ hybridization of AChE-S mRNA in rat muscle. It counts as in vivo. Particulars: 24 h after single i.v. injection. On the procedure:
(§1) In situ hybridization: Tissues were fixed in 4% paraformaldehyde and cut into 7 μm paraffin embedded sections. Spinal cord sections were deparaffinized, rehydrated using serial ethanol dilutions and permeabilized with proteinase K (10 μg/ml at room temp.). Slides were exposed to 5′ biotinylated, fully 2′-oxymethylated AChE-R or AChE-S-specific 50-mer cRNA probes complementary to human ACHE pseudo-intron 4 or exon 6, respectively [Grisaru et al. (2001) id ibid.]. Hybridization was performed overnight at 52° C. in hybridization mixture containing 10 μg/ml probe, 50 μg/ml yeast tRNA, 50 μg/ml heparin and 50% formamide in 375 mM Na chloride, 37.5 mM Na citrate, pH 4.5. For monkey sections, the probe was constructed according to the human AChE-R sequence; for rat sections, according to the mouse sequence. Slides were washed to remove non-hybridized probe, blocked with 1% skim milk containing 0.01% Tween-20 and 2 mM levamisole, an alkaline phosphatase inhibitor used to suppress non-specific staining and incubate with streptavidin-alkaline phosphatase (Amersham Pharmacia). Fast Red™ substrate (Roche Diagnostics) was used for detection. DAPI staining (Sigma Chemical Co., St. Louis, Mo., USA) served to visualize nuclei. Microscope images were analyzed with Image Pro Plus 4.0 (Media Cybernetics) software. […]

In a further data set the test system is EAMG rats. The data set can be described thus: Repeated daily treatment of EAMG rats (5 days and 1 month): survival, body weight, status. It counts as in vivo, rat. An excerpt:
As shown in Example 5, unlike anti-cholinesterases, rEN101 afforded long-term maintenance of stable CMAP. This further enabled the inventors to test whether the cholinergic imbalance contributes to the physiological deterioration that is characteristic of EAMG. Rats were first treated with rEN101 once a day for 5 days, CMAPs being determined prior to each treatment. Both the efficacy of rEN101 in retrieving normal CMAP and its capacity to reduce the inter-animal variability in CMAP values reached similar levels to those of pyridostigmine (FIGS. 11A and 11B). However, the onset of response to pyridostigmine was more rapid (Table 1), while that observed with rEN101 was longer-lasting. Daily oral or i.v administration of rEN101 stabilized CMAPs over the entire course of treatment (FIG. 11B). In contrast, the effect of pyridostigmine wore off within several hours, causing pronounced fluctuations in muscle status (Table 1 and FIG. 11). Among the animals treated daily with pyridostigmine, 5 out of 6 died within the 5 day experimental course. In contrast, 6 out of 8 animals treated once-a-day with rEN101 via o.g. survived the full 5 day period. This conspicuous difference might reflect the susceptibility of EAMG rats to repeated anesthesia and CMAP measurements. In order to avoid these additional stresses and evaluate the effect of the antisense treatment on EAMG pathophysiology, the inventors subjected groups of moderately sick animals to 1 month of daily oral treatment with minimal interference. […] One way repeated measures ANOVA yielded P<0.05 for all other measures (AS vs. other treatments at 4 weeks). The effect of rEN101 on clinical symptoms was also corroborated by body weight changes. Rats treated with saline and Mestinon treated groups lost 13.5 and 11 g/animal, respectively, whereas animals treated with rEN101 gained, on average, 13 g during the treatment period. Thus, daily rEN101 administration promoted long-term change in the course of EAMG in rats with moderate to severe symptoms, under the same conditions in which untreated or pyridostigmine-treated animals deteriorated.

The next data set relates to healthy rats. The data set can be described thus: Treadmill running time of healthy rats. It counts as in vivo, rat. The note with it: 250 μg/Kg. As for the experimental part: Exercise training on treadmill: To establish a clinical measure of neuromuscular performance in EAMG rats, a treadmill assay was performed. Animals were placed on an electrically powered treadmill [Moran et al. (1996) J Therm Biol 21, 171-181] at 25 m/min (a physical effort of moderate intensity) until visibly fatigued. The amount of time the rats were able to run was recorded before and after anti-sense or Mestinon® treatment.

The subject of data set [2] is AChE-S mRNA. Nature of the data set: In situ hybridization of AChE-S mRNA in monkey spinal cord. It counts as in vivo, Cynomolgus monkey. Particulars: oral 0.15 and 0.50, i.v. 0.50 μg/g/day, 7 days. As for the experimental part: as §1
Data set [3] is described as follows: Stability of hEN101 in human plasma and blood. In kind it is in vitro ADME. As for the experimental part:
Exposure at room temperature to Li-heparin-treated blood caused a decay of hEN101 with a half-life in the order of 30 min.

Bounds are passed on as bounds.

As for “5′-CTGCGATATTTTCTTGTACC-3′ (chemistry not given here) [rEN101]”, the “AChE-S mRNA labeling in muscle” value in the data set with AChE-S mRNA [1] is given as “only nominally affected”. In the data set with EAMG rats (EAMG rats treated once-a-day via o.g.), the “Animals that survived the full 5 day period” value was 6 out of 8. In addition, the “Survival, clinical status and treadmill performance vs pyridostigmine- and saline-treated animals” value with EAMG rats (EAMG rats, 1 month daily oral doses (50 μg/Kg)) was “significant improvement in survival, clinical status and treadmill performance”. Further, in the data set with EAMG rats (EAMG rats, 1 month daily oral treatment), the “Body weight gained during the treatment period, average” value was determined as 13 g. In addition, the “Effect on treadmill running of healthy animals” value in the data set with healthy rats was “not significantly affected”.

In the case of 5′-CTGCCACGTTCTCCTGCACC-3′ [hEN101], in the data set on AChE-S mRNA [2], the “AChE-S mRNA in spinal cord” value is “no apparent reduction”. Further, the “Stability, remaining concentration” value in data set [3] (2 h in human plasma with EDTA at room temperature), in data set [3] (after 1 month at −20° C.) and in data set [3] (following three freeze/thawing cycles) was > 90 % of original concentration throughout. This substance showed a Half-life of decay in data set [3] (Li-heparin-treated blood at room temperature) of around 30 min.

Values taken from patent US7456154B2 (priority 2001, dated 2008).
